Data as given in US6531160B2, “Microcapsules with an aqueous core containing at least one water-soluble cosmetic or dermatological active principle and cosmetic or dermatological compositions containing them” (L′Oreal, priority 2000, dated 2003).

Experiment: Loss of active agent after storage for 2 months at 45° C. (microcapsule suspension vs control aqueous solution)
Format: physicochemical
Conditions: control aqueous solution of the active agent, same weight concentration
Method: (§1) The microcapsule suspension thus obtained is stored for 2 months at a temperature of 45° C. After this storage period, the loss of cytochrome C from the suspension and that of a control aqueous solution of cytochrome C having the same weight concentration of 0.25% and which has been stored under the same conditions, are measured.
as §1, with “chlorophylline” for “cytochrome C”, “0.1%,” for “0.25%”
as §1, with “ascorbic acid” for “cytochrome C”, “5% and also a pH of 6,” for “0.25%”

| Compound | Loss of active agent after storage for 2 months at 45° C., non-encapsulated control |
| --- | --- |
| chlorophylline | 60% |
| cytochrome C | 60% |
| O=C1O[C@H]([C@@H](O)CO)C(O)=C1O [ascorbic acid] | 40% |
